6 compounds from PubChem BioAssay (NCI) can be followed below.

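Step 1: Grow cells in 96-well plates. Step 2: Expose to compound for 48 hours at 5 concentrations. Step 3: Interpolate endpoints linearly; if unreached, use highest concentration. At the TGI there is no net growth.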 Where only a bound is given, the exact number is not on record here.

Holding throughout (assay): NCI anticancer screen, dose series, 48 h
Experiment [1] concerns DLD-1 colon.
Experiment [2] relates to LXFL 529 NSCLC.
Experiment [3] has as its system DMS 114 small cell lung.
For experiment [4], the system named is HOP-18 NSCLC.
In experiment [5] the test system is M14 melanoma.
Experiment [6] deals with DMS 273 small cell lung.
Experiment [7] concerns NCI-H23 lung.
Experiment [8] has as its system RXF-631 renal.
Experiment [9] has as its system KM20L2 colon.
Experiment [10] has as its system XF 498 CNS.
The subject of experiment [11] is ACHN renal.
Experiment [12] has as its system M19-MEL melanoma.
The test system of experiment [13] is SNB-78 CNS.
In experiment [14] the test system is IGROV1 ovarian.

For the compound `CN(C)c1ccc(C=C2C(=O)OC(C)(C)OC2=O)cc1Br`, the TGI in [1], in experiment [2], in experiment [3], in [4], in experiment [5] and in [6] was more than 100 µM each time. For the same compound, the TGI in experiment [7], in [8], in experiment [9], in experiment [10], in experiment [11] and in [12] was more than 100 µM throughout.
Turning to `Cn1c(/C=C(\O)c2ccc(Cl)cc2)nc2ccccc21`, the TGI in [1], in experiment [2], in experiment [5], in experiment [13], in [7] and in experiment [8] was more than 100 µM in each case. The TGI in [9] is 95.6 µM; in [10], more than 100 µM; in [11], more than 100 µM; in experiment [14], more than 100 µM; in experiment [12], more than 100 µM.
Take `CCOC(=O)c1nc2ccc([N+](=O)[O-])cc2c2c1CCO2`: the TGI in [1], in [2], in experiment [3], in experiment [4], in experiment [5] and in experiment [13] was more than 100 µM throughout. For the same compound, the TGI in [6], in experiment [7], in [8], in experiment [9], in experiment [10] and in [11] was more than 100 µM each time. The TGI in experiment [14] and in experiment [12] was more than 100 µM throughout.
Turning to `CC(=O)C1=CSC2[C@H](NC(=O)Cc3ccccc3)C(=O)N2C1C(=O)OC(c1ccccc1)c1ccccc1` (stereo not given in full), the TGI in experiment [1], in [2], in experiment [3], in [5], in [13] and in [6] was more than 100 µM in each case. The TGI in experiment [7], in experiment [8], in experiment [10], in [14] and in [12] was more than 100 µM throughout.
Consider `CCOC1(COP(=O)(OCc2ccccc2)OCc2ccccc2)COC(COP(=O)(OCc2ccccc2)OCc2ccccc2)(OCC)CO1` (stereo not given), for which the TGI in [1], in experiment [2], in experiment [4], in experiment [5], in experiment [13] and in experiment [6] was more than 100 µM in each case. In addition, the TGI in [7], in experiment [8], in [9], in [10], in experiment [11] and in experiment [14] was more than 100 µM throughout. In experiment [12], this compound yielded a TGI of more than 100 µM.
Turning to `O=c1cc(-c2ccccc2)[nH]c2cc(O)ccc12`, the TGI in experiment [1] is 35.7 µM; in experiment [2] it was more than 100 µM; in experiment [3], 34 µM; in [4] it was more than 100 µM; in experiment [5] it was 39 µM; in [13] it was more than 100 µM. Also, the TGI was 87.8 µM in [6]; 87.6 µM in experiment [7]; more than 100 µM in [8]; 40.4 µM in experiment [9]; 50.4 µM in experiment [10]; 53.7 µM in [11]. Also, the figures for the TGI in experiment [14] and in experiment [12] were 65.6 µM and 35.3 µM, respectively.
